What was measured:
Format in all cases: in vivo
[1] = tested on: Nilaparvata lugens (Brown Plant Hopper); assay: Activity against Nilaparvata lugens (brown plant hopper), larvicide, systemic into water; conditions: 168 h, application rate of 12.5 ppm, N3 nymphs, 7 days after infestation
Method: Larvicide, systemic into water Rice plants cultivated in a nutritive solution were treated with the diluted test solutions into nourishing cultivation system. 1 day after application plants were infested with ˜20 N3 nymphs. 7 days after infestation samples were assessed for mortality and growth regulation.

[2] = tested on: Myzus persicae (Green Peach Aphid); assay: Activity against Myzus persicae (green peach aphid), feeding/contact activity; conditions: 144 h, application rate of 200 ppm, mixed ages, 6 days after infestation
Method: Sunflower leaf discs were placed onto agar in a 24-well microtiter plate and sprayed with aqueous test solutions prepared from 10′000 ppm DMSO stock solutions. After drying, the leaf discs were infested with an aphid population of mixed ages. The samples were assessed for mortality 6 days after infestation.

[3] = tested on: Euschistus heros (Neotropical Brown Stink Bug); assay: Activity against Euschistus heros (neotropical brown stink bug), soybean leaves sprayed; conditions: 120 h, application rate of 200 ppm, N2 nymphs, 5 days after infestation, read-out: effect in at least one of the two categories (mortality or growth inhibition)
Method: Soybean leaves on agar in 24-well microtiter plates were sprayed with aqueous test solutions prepared from 10′000 ppm DMSO stock solutions. After drying the leaves were infested with N2 nymphs. The samples were assessed for mortality and growth inhibition in comparison to untreated samples 5 days after infestation.

[4] = tested on: Myzus persicae (Green Peach Aphid); assay: Activity against Myzus persicae (green peach aphid), systemic activity; conditions: 144 h, test rate of 24 ppm, pea seedling roots in test solution, 6 days
Method: Roots of pea seedlings infested with an aphid population of mixed ages were placed directly into aqueous test solutions prepared from 10′000 DMSO stock solutions. The samples were assessed for mortality 6 days after placing seedlings into test solutions.

[5] = tested on: Bemisia tabaci (Cotton White Fly); assay: Activity against Bemisia tabaci (cotton white fly), cotton leaf discs sprayed; conditions: foliar, 144 h, application rate of 200 ppm, adult white flies, 6 days after incubation
Method: Cotton leaf discs were placed on agar in 24-well microtiter plates and sprayed with aqueous test solutions prepared from 10′000 ppm DMSO stock solutions. After drying the leaf discs were infested with adult white flies. The samples were checked for mortality 6 days after incubation.

[6] = tested on: Carpocapsa (Cydia) Pomonella (Codling Moth); assay: Activity against Carpocapsa (Cydia) pomonella (codling moth), larvicide, feeding/contact; conditions: 336 h, application rate of 12.5 ppm, L1 larvae, 14 days after infestation, read-out: effect in at least one of the two categories (mortality or growth inhibition)
Method: Diet cubes coated with paraffin were sprayed with diluted test solutions in an application chamber. After drying off the treated cubes (10 replicates) were infested with 1 L1 larvae. Samples were incubated at 26-27° C. and checked 14 days after infestation for mortality and growth inhibition. The following compounds gave an effect of at least 80% in at least one of the two categories (mortality or growth inhibition) at an application rate of 12.5 ppm: P1, P2, P3, P5, P9, P10, P11, P12, P14, P17, P19, P20, P21, P23, P24, P30, P31.

[7] = tested on: Chilo suppressalis (Striped Rice Stemborer); assay: Activity against Chilo suppressalis (striped rice stemborer), artificial diet; conditions: 144 h, application rate of 200 ppm, L2 larvae, 6 days after infestation, read-out: control (mortality, anti-feeding effect, growth inhibition)
Method: 24-well microtiter plates with artificial diet were treated with aqueous test solutions prepared from 10′000 ppm DMSO stock solutions by pipetting. After drying, the plates were infested with L2 larvae (6-8 per well). The samples were assessed for mortality, anti-feeding effect, and growth inhibition in comparison to untreated samples 6 days after infestation. Control of Chilo suppressalis by a test sample is given when at least one of the categories mortality, anti-feedant effect, and growth inhibition is higher than the untreated sample.

[8] = tested on: Spodoptera littoralis (Egyptian Cotton Leaf Worm); assay: Activity against Spodoptera littoralis (Egyptian cotton leaf worm), cotton leaf discs sprayed; conditions: foliar, 72 h, application rate of 200 ppm, L1 larvae, 3 days after infestation, read-out: control (mortality, anti-feeding effect, growth inhibition)
Method: Cotton leaf discs were placed onto agar in 24-well microtiter plates and sprayed with aqueous test solutions prepared from 10′000 ppm DMSO stock solutions. After drying the leaf discs were infested with five L1 larvae. The samples were assessed for mortality, anti-feeding effect, and growth inhibition in comparison to untreated samples 3 days after infestation. Control of Spodoptera littoralis by a test sample is given when at least one of the categories mortality, anti-feedant effect, and growth inhibition is higher than the untreated sample.

[9] = tested on: Diabrotica Balteata (Corn Root Worm); assay: Activity against Diabrotica balteata (corn root worm), maize sprouts sprayed; conditions: 96 h, application rate of 200 ppm, L2 larvae, 4 days after infestation, read-out: effect in at least one of the two categories (mortality or growth inhibition)
Method: Maize sprouts placed onto an agar layer in 24-well microtiter plates were treated with aqueous test solutions prepared from 10′000 ppm DMSO stock solutions by spraying. After drying, the plates were infested with L2 larvae (6 to 10 per well). The samples were assessed for mortality and growth inhibition in comparison to untreated samples 4 days after infestation.

[10] = tested on: Plutella xylostella (Diamond Back Moth); assay: Activity against Plutella xylostella (diamond back moth), artificial diet; conditions: 192 h, application rate of 200 ppm, eggs, 8 days after infestation, read-out: effect in at least one of the two categories (mortality or growth inhibition)
Method: 24-well microtiter plates with artificial diet were treated with aqueous test solutions prepared from 10′000 ppm DMSO stock solutions by pipetting. After drying, Plutella eggs were pipetted through a plastic stencil onto a gel blotting paper and the plate was closed with it. The samples were assessed for mortality and growth inhibition in comparison to untreated samples 8 days after infestation.

[11] = tested on: Tetranychus urticae (Two-Spotted Spider Mite); assay: Activity against Tetranychus urticae (two-spotted spider mite), bean leaf discs sprayed; conditions: foliar, 192 h
Method: Bean leaf discs on agar in 24-well microtiter plates were sprayed with aqueous test solutions prepared from 10′000 ppm DMSO stock solutions. After drying the leaf discs were infested with a mite population of mixed ages. The samples were assessed for mortality on mixed population (mobile stages) 8 days after infestation.

[12] = tested on: Frankliniella occidentalis (Western Flower Thrips); assay: Activity against Frankliniella occidentalis (western flower thrips), sunflower leaf discs sprayed; conditions: foliar, 168 h, application rate of 200 ppm, population of mixed ages, 7 days after infestation
Method: Sunflower leaf discs were placed on agar in 24-well microtiter plates and sprayed with aqueous test solutions prepared from […] stock solutions. After drying the leaf discs were infested with a Frankliniella population of mixed ages. The samples were assessed for mortality 7 days after infestation.

CCS(=O)(=O)c1cc(C(C)(C)C#N)cnc1-c1cc2c(cn1)N(CC(F)(F)C(F)(F)F)C(=O)CC2 [P11, 2-[5-ethylsulfonyl-6-[2-oxo-1-(2,2,3,3,3-pentafluoropropyl)-3,4-dihydro-1,7-naphthyridin-6-yl]-3-pyridyl]-2-methyl-propanenitrile]
≥ 80%: mortality at 12.5 ppm [1] | mortality at 200 ppm [2] | percent effect (mortality or growth inhibition) at 200 ppm [3] | mortality at 24 ppm [4] | mortality at 200 ppm [5] | percent effect (mortality or growth inhibition) at 12.5 ppm [6] | mortality at 200 ppm [7] | mortality at 200 ppm [8] | percent effect (mortality or growth inhibition) at 200 ppm [9] | percent effect (mortality or growth inhibition) at 200 ppm [10]

CCS(=O)(=O)c1cc(C(C)(C)F)cnc1-c1cc2c(cn1)N(CC(F)(F)C(F)(F)F)C(=O)CC2 [P23, 6-[3-ethylsulfonyl-5-(1-fluoro-1-methyl-ethyl)-2-pyridyl]-1-(2,2,3,3,3-pentafluoropropyl)-3,4-dihydro-1,7-naphthyridin-2-one]
≥ 80%: mortality at 12.5 ppm [1] | mortality at 200 ppm [11] | percent effect (mortality or growth inhibition) at 200 ppm [3] | percent effect (mortality or growth inhibition) at 12.5 ppm [6] | mortality at 200 ppm [7] | mortality at 200 ppm [8] | percent effect (mortality or growth inhibition) at 200 ppm [9] | percent effect (mortality or growth inhibition) at 200 ppm [10]

CCS(=O)(=O)c1cc(C2(C#N)CC2)cnc1-c1cc2c(cn1)N(CC(F)(F)C(F)(F)F)C(=O)OC2 [P3, 1-[5-ethylsulfonyl-6-[2-oxo-1-(2,2,3,3,3-pentafluoropropyl)-4H-pyrido[3,4-d][1,3]oxazin-6-yl]-3-pyridyl]cyclopropanecarbonitrile]
≥ 80%: mortality at 12.5 ppm [1] | mortality at 200 ppm [2] | percent effect (mortality or growth inhibition) at 200 ppm [3] | mortality at 200 ppm [5] | percent effect (mortality or growth inhibition) at 12.5 ppm [6] | mortality at 200 ppm [7] | mortality at 200 ppm [8] | percent effect (mortality or growth inhibition) at 200 ppm [9] | percent effect (mortality or growth inhibition) at 200 ppm [10]

CCS(=O)(=O)c1cccnc1-c1cc2c(cn1)N(CC(F)(F)C(F)(F)F)C(=O)CC2 [P1, 6-(3-ethylsulfonyl-2-pyridyl)-1-(2,2,3,3,3-pentafluoropropyl)-3,4-dihydro-1,7-naphthyridin-2-one]
≥ 80%: mortality at 12.5 ppm [1] | mortality at 200 ppm [2] | percent effect (mortality or growth inhibition) at 200 ppm [3] | mortality at 24 ppm [4] | percent effect (mortality or growth inhibition) at 12.5 ppm [6] | mortality at 200 ppm [7] | mortality at 200 ppm [8] | percent effect (mortality or growth inhibition) at 200 ppm [9] | percent effect (mortality or growth inhibition) at 200 ppm [10]

CCS(=O)(=O)c1cc(C2(C#N)CC2)cnc1-c1cc2c(cn1)N(CC(F)(F)C(F)(F)F)C(=O)CC2 [P12, 1-[5-ethylsulfonyl-6-[2-oxo-1-(2,2,3,3,3-pentafluoropropyl)-3,4-dihydro-1,7-naphthyridin-6-yl]-3-pyridyl]cyclopropanecarbonitrile]
≥ 80%: mortality at 12.5 ppm [1] | mortality at 200 ppm [2] | percent effect (mortality or growth inhibition) at 200 ppm [3] | mortality at 24 ppm [4] | mortality at 200 ppm [5] | percent effect (mortality or growth inhibition) at 12.5 ppm [6] | mortality at 200 ppm [7] | mortality at 200 ppm [8] | percent effect (mortality or growth inhibition) at 200 ppm [9] | percent effect (mortality or growth inhibition) at 200 ppm [10]

CCS(=O)(=O)c1cc(C2(C#N)CC2)cnc1-c1cc2c(cn1)N(CC(F)(F)F)C(=O)CC2 [P2, 1-[5-ethylsulfonyl-6-[2-oxo-1-(2,2,2-trifluoroethyl)-3,4-dihydro-1,7-naphthyridin-6-yl]-3-pyridyl]cyclopropanecarbonitrile]
≥ 80%: mortality at 12.5 ppm [1] | mortality at 200 ppm [2] | percent effect (mortality or growth inhibition) at 200 ppm [3] | mortality at 24 ppm [4] | mortality at 200 ppm [5] | percent effect (mortality or growth inhibition) at 12.5 ppm [6] | mortality at 200 ppm [7] | mortality at 200 ppm [8] | percent effect (mortality or growth inhibition) at 200 ppm [9] | percent effect (mortality or growth inhibition) at 200 ppm [10]

CCSc1cc(C2(C#N)CC2)cnc1-c1cc2c(cn1)N(CC(F)(F)C(F)(F)F)C(=O)OC2 [P4, 1-[5-ethylsulfanyl-6-[2-oxo-1-(2,2,3,3,3-pentafluoropropyl)-4H-pyrido[3,4-d][1,3]oxazin-6-yl]-3-pyridyl]cyclopropanecarbonitrile]
≥ 80%: mortality at 200 ppm [2] | percent effect (mortality or growth inhibition) at 200 ppm [3] | mortality at 200 ppm [7] | mortality at 200 ppm [8] | percent effect (mortality or growth inhibition) at 200 ppm [9] | mortality at 200 ppm [12] | percent effect (mortality or growth inhibition) at 200 ppm [10]

From patent US20240122182A1, “PESTICIDALLY ACTIVE HETEROCYCLIC DERIVATIVES WITH SULFUR CONTAINING SUBSTITUENTS” (SYNGENTA CROP PROTECTION AG, priority 2021, published 2024)
